Legend:
Plasma = settings: human
physchem = settings: octanol/water, pH 7.4
[1] = AUC in po dosed Balb/c mouse infected with Mycobacterium tuberculosis H37Rv administered via gavage for 10 days starting 3 days post-infection measured at day 9 of drug dosing; format: ADME, organism-based; settings: plasma

| Compound | Cp(f) (Plasma) [µM] | logD (physchem) | AUC [1] [µg·h/mL] |
| --- | --- | --- | --- |
| CCNC(=O)Nc1nc2cc(-c3ccn(CCOC)c(=O)c3)c(N[C@H]3CCOC3)nc2s1 | 13 | – | – |
| C=CCNC(=O)Nc1nc2cc(-c3cccnc3)ccc2s1 | 0.7 | 3.9 | – |
| C=CCNC(=O)Nc1nc2cc(-c3cccnc3)cnc2s1 | 3.2 | 2.9 | – |
| CCNC(=O)Nc1nc2cc(-c3cccnc3)c(N[C@H]3CCOC3)nc2s1 | 28 | 2 | 200 |
| CCNC(=O)Nc1nc2cc(-c3cccnc3)c(NCC3CCOC3)nc2s1 (stereo not drawn) | 40 | 2.7 | – |
| CCNC(=O)Nc1nc2cc(-c3ccc(F)nc3)c(OCC3CCOC3)nc2s1 (stereo not drawn) | 0.6 | – | – |
| CCNC(=O)Nc1nc2cc(-c3ccc(C)nc3)c(OCC3CCOC3)nc2s1 (stereo not drawn) | 0.9 | – | – |
| CCNC(=O)Nc1nc2cc(-c3cncc(OC)c3)c(OCC3CCOC3)nc2s1 (stereo not drawn) | 2.5 | – | – |
| CCNC(=O)Nc1nc2cc(-c3cnc(C)nc3)c(OCC3CCOC3)nc2s1 (stereo not drawn) | 6 | – | – |
| CCNC(=O)Nc1nc2cc(-c3ccc(C#N)nc3)c(NC3CCOCC3)nc2s1 | 6 | – | – |
| CCNC(=O)Nc1nc2cc(-c3cncc(OCCN(C)C)c3)c(OCC3CCOC3)nc2s1 (stereo not drawn) | 11 | – | – |
| CCNC(=O)Nc1nc2cc(-c3cncc(OCCN4CCOCC4)c3)c(OCC3CCOC3)nc2s1 (stereo not drawn) | 10 | – | – |
| CCNC(=O)Nc1nc2cc(-c3ccn(C)c(=O)c3)c(OCC3CCOC3)nc2s1 (stereo not drawn) | 5 | – | – |
| CCNC(=O)Nc1nc2cc(-c3cc(C(C)C)n(C)c(=O)c3)c(OCC3CCOC3)nc2s1 (stereo not drawn) | 4 | – | – |
| CCNC(=O)Nc1nc2cc(-c3ccn(CCOC)c(=O)c3)c(OCC3CCOC3)nc2s1 (stereo not drawn) | 7 | – | – |
| CCNC(=O)Nc1nc2cc(-c3ccn(CCOC)c(=O)c3)c(O[C@@H]3CCOC3)nc2s1 | 11 | – | – |
| CCNC(=O)Nc1nc2cc(-c3ccn(CCN(C)C)c(=O)c3)c(OCC3CCOC3)nc2s1 (stereo not drawn) | 5 | – | – |
| CCNC(=O)Nc1nc2cc(-c3ccn(CCN4CCOCC4)c(=O)c3)c(OCC3CCOC3)nc2s1 (stereo not drawn) | 5 | – | – |
